# Data from article PMC5909127, “Optimization of a “bump-and-hole” approach to allele-selective BET bromodomain inhibition” (Chemical Science, 2018).
# Key:
# BRD3 BD1 L/V [1] = molecular target: T1, BRD3 BD1 L/V (Homo sapiens, UniProt Q15059, L70V); assay: competitive AlphaLISA; type: binding
# BRD3 BD2 L/V [2] = molecular target: T2, BRD3 BD2 L/V (Homo sapiens, UniProt Q15059, L345V); assay: ITC; type: binding; details: for ΔH BRD3 BD2 L/V: ITC
# BRD2 BD1 L/V [3] = molecular target: T3, BRD2 BD1 L/V (Homo sapiens, UniProt P25440, L110V); assay: competitive AlphaLISA; type: binding
# T3 sequence (P25440 71-176 L110V limits assumed): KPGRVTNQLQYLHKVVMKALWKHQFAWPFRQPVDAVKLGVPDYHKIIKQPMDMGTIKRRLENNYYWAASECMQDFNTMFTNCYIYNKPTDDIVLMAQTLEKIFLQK
# BRD3 BD2 WT [4] = molecular target: T4, BRD3 BD2 WT (Homo sapiens, UniProt Q15059); assay: competitive AlphaLISA; type: binding
# T4 sequence (Q15059 306-416): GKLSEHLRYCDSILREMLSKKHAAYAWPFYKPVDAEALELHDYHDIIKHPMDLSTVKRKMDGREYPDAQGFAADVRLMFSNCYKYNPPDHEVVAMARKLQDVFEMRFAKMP
# BRD3 BD1 WT [5] = molecular target: T5, BRD3 BD1 WT (Homo sapiens, UniProt Q15059); assay: competitive AlphaLISA; type: binding
# T5 sequence (Q15059 24-144): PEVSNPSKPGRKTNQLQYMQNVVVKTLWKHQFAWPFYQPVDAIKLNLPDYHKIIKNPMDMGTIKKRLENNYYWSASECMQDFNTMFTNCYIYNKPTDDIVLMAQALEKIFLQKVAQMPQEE
# BRD4 BD1 WT [6] = molecular target: T6, BRD4 BD1 WT (Homo sapiens, UniProt O60885); assay: ITC; type: binding; details: for ΔH BRD4 BD1 WT: ITC
# BRD4 BD2 WT [7] = molecular target: T7, BRD4 BD2 WT (Homo sapiens, UniProt O60885); assay: competitive AlphaLISA; type: binding
# BRD3 BD2 L/V [8] = molecular target: T2, BRD3 BD2 L/V; assay: competitive AlphaLISA; type: binding
# BRDT BD1 L/V = BRDT BD1 L/V (Homo sapiens, UniProt Q58F21, L63V); assay: competitive AlphaLISA; type: binding
# BRD2 BD2 L/V [9] = molecular target: T8, BRD2 BD2 L/V (Homo sapiens, UniProt P25440, L383V); assay: ITC; type: binding; details: for ΔH BRD2 BD2 L/V: ITC
# T8 sequence (P25440 344-455 L383V): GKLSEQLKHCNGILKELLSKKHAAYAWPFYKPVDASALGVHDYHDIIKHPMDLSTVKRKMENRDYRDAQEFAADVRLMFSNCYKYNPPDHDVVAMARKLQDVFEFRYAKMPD
# BRD2 BD2 L/V [10] = molecular target: T8, BRD2 BD2 L/V; assay: competitive AlphaLISA; type: binding
# Intrinsic Clearance = details: mouse liver microsomes
# BRD4 BD2 WT [11] = molecular target: T7, BRD4 BD2 WT; assay: ITC; type: binding
# BRD2 BD1 WT [12] = molecular target: T9, BRD2 BD1 WT (Homo sapiens, UniProt P25440); assay: competitive AlphaLISA; type: binding
# T9 sequence (P25440 71-176): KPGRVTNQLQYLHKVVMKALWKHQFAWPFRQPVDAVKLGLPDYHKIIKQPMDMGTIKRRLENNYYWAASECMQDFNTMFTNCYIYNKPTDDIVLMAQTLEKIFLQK
# BRD3 BD2 WT [13] = molecular target: T4, BRD3 BD2 WT; assay: ITC; type: binding; details: for ΔH BRD3 BD2 WT: ITC
# [14] = molecular target: WT BET bromodomains (BD1 and BD2 of BRD2, BRD3 and BRD4); assay: competitive AlphaLISA (Bio-JQ1 displacement); type: binding, human; details: mean and SD of all somatic bromodomains; active enantiomer concentration
# [15] = molecular target: WT somatic BET bromodomains; assay: ITC; details: mean and SD of all somatic bromodomains
# BRDT BD2 WT = BRDT BD2 WT (Homo sapiens, UniProt Q58F21); assay: competitive AlphaLISA; type: binding
# BRD3 BD1 L/V [16] = molecular target: T1, BRD3 BD1 L/V; assay: ITC; type: binding; details: for ΔH BRD3 BD1 L/V: ITC
# in vitro = details: PAMPA, pH 7.4
# Plasma Half-life = details: BALB/c, mouse, pH 7.4
# BRD4 BD1 L/V [17] = molecular target: T10, BRD4 BD1 L/V (Homo sapiens, UniProt O60885, L94V); assay: ITC; type: binding; details: for ΔH BRD4 BD1 L/V / Kd: ITC; for Kd: Kd BRD4 BD1 L/V, 30°C
# BRD4 BD1 L/V [18] = molecular target: T10, BRD4 BD1 L/V; assay: competitive AlphaLISA; type: binding; details: AlphaLISA pIC50 Value BRD4 BD1 L/V
# BRD2 BD2 WT [19] = molecular target: T11, BRD2 BD2 WT (Homo sapiens, UniProt P25440); assay: competitive AlphaLISA; type: binding
# T11 sequence (P25440 344-455): as the sequence (P25440 344-455 L383V) above, with V40L counted along it
# [20] = tested on: L/V somatic BET bromodomains; assay: ITC; details: for ITC pKd ± SD Δ: L/V minus WT
# BRDT BD1 WT = BRDT BD1 WT (Homo sapiens, UniProt Q58F21); assay: competitive AlphaLISA; type: binding
# BRD4 BD1 WT [21] = molecular target: T6, BRD4 BD1 WT; assay: competitive AlphaLISA; type: binding; details: AlphaLISA pIC50 Value BRD4 BD1 WT
# BRD4 BD2 L/V [22] = molecular target: T12, BRD4 BD2 L/V (Homo sapiens, UniProt O60885, L387V); assay: competitive AlphaLISA; type: binding
# BRD2 BD1 L/V [23] = molecular target: T3, BRD2 BD1 L/V; assay: ITC; type: binding; details: for ΔH BRD2 BD1 L/V: ITC
# [24] = tested on: L/V BET bromodomains (BD1 and BD2 of BRD2, BRD3 and BRD4); assay: competitive AlphaLISA (Bio-JQ1 displacement); type: binding, human; details: for AlphaLISA pIC50 ± SD Δ: L/V minus WT
# BRDT BD2 L/V = BRDT BD2 L/V (Homo sapiens, UniProt Q58F21, L306V); assay: competitive AlphaLISA; type: binding
# BRD4 BD2 L/V [25] = molecular target: T12, BRD4 BD2 L/V; assay: ITC; type: binding; details: for ΔH BRD4 BD2 L/V: ITC
# BRD2 BD1 WT [26] = molecular target: T9, BRD2 BD1 WT; assay: ITC; type: binding
# BRD3 BD1 WT [27] = molecular target: T5, BRD3 BD1 WT; assay: ITC; type: binding
# BRD2 BD2 WT [28] = molecular target: T11, BRD2 BD2 WT; assay: ITC; type: binding
# T2 sequence (Q15059 306-416 L345V limits assumed): as the sequence (Q15059 306-416) above, with L40V counted along it
# T1 sequence (Q15059 24-144 L70V limits assumed): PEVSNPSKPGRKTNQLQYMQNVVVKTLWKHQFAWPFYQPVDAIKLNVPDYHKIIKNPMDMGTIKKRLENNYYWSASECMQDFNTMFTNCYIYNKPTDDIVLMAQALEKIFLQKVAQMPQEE
structure (smiles),measurement,setting,value
CCNC(=O)[C@H](C)[C@@H]1N=C(c2ccc(Cl)cc2)c2ccc(OC)cc2-n2c(C)nnc21 (relative stereo) [Compound 21],IC50,BRD3 BD1 L/V [1],501 nM
same,Kd,BRD3 BD2 L/V [2],800 nM
same,ΔH BRD3 BD2 L/V,BRD3 BD2 L/V [2],-6.7 kcal/mol
same,N BRD3 BD2 L/V,BRD3 BD2 L/V [2]; ITC stoichiometry,0.90
same,IC50,BRD2 BD1 L/V [3],2000 nM
same,IC50,BRD3 BD2 WT [4],15800 nM
same,IC50,BRD3 BD1 WT [5],5010 nM
same,Kd,BRD4 BD1 WT [6],39000 nM
same,ΔH BRD4 BD1 WT,BRD4 BD1 WT [6],-3.3 kcal/mol
same,IC50,BRD4 BD2 WT [7],31600 nM
same,IC50,BRD3 BD2 L/V [8],501 nM
same,IC50,BRDT BD1 L/V,2510 nM
same,Kd,BRD2 BD2 L/V [9],230 nM
same,ΔH BRD2 BD2 L/V,BRD2 BD2 L/V [9],-4.8 kcal/mol
same,N BRD2 BD2 L/V,BRD2 BD2 L/V [9]; ITC stoichiometry,0.84
same,IC50,BRD2 BD2 L/V [10],1000 nM
same,CL int,Intrinsic Clearance,1.5 ml min^–1 g^–1
same,Kd,BRD4 BD2 WT [11],> 60000 nM
same,IC50,BRD2 BD1 WT [12],39800 nM
same,Kd,BRD3 BD2 WT [13],11000 nM
same,ΔH BRD3 BD2 WT,BRD3 BD2 WT [13],-4.5 kcal/mol
same,N BRD3 BD2 WT,BRD3 BD2 WT [13]; ITC stoichiometry,0.46
same,AlphaLISA pIC50 ± SD WT,[14],4.7 ± 0.3
same,ITC pKd ± SD WT,[15],4.5 ± 0.4
same,IC50,BRDT BD2 WT,25100 nM
same,Kd,BRD3 BD1 L/V [16],410 nM
same,ΔH BRD3 BD1 L/V,BRD3 BD1 L/V [16],-10.7 kcal/mol
same,N BRD3 BD1 L/V,BRD3 BD1 L/V [16]; ITC stoichiometry,0.92
same,Papp,in vitro,4 ×10⁻⁶ cm/s
same,half-life at 50 µM,Plasma Half-life,> 3 h
same,ΔH BRD4 BD1 L/V,BRD4 BD1 L/V [17],-5.9 kcal/mol
same,N BRD4 BD1 L/V,BRD4 BD1 L/V [17]; ITC stoichiometry,0.88
same,Kd,BRD4 BD1 L/V [17],370 nM
same,IC50,BRD4 BD1 L/V [18],1000 nM
same,IC50,BRD2 BD2 WT [19],15800 nM
same,ITC pKd ± SD Δ,[20],1.8 ± 0.5
same,ITC pKd ± SD L/V,[20]; mean and SD of all somatic bromodomains,6.3 ± 0.2
same,IC50,BRDT BD1 WT,50100 nM
same,IC50,BRD4 BD1 WT [21],25100 nM
same,IC50,BRD4 BD2 L/V [22],1260 nM
same,Kd,BRD2 BD1 L/V [23],990 nM
same,ΔH BRD2 BD1 L/V,BRD2 BD1 L/V [23],-8.8 kcal/mol
same,N BRD2 BD1 L/V,BRD2 BD1 L/V [23]; ITC stoichiometry,0.97
same,AlphaLISA pIC50 ± SD Δ,[24],1.3 ± 0.2
same,AlphaLISA pIC50 ± SD L/V,"[24]; mean and SD of all somatic bromodomains, active enantiomer concentration",6.0 ± 0.2
same,IC50,BRDT BD2 L/V,1580 nM
same,Kd,BRD4 BD2 L/V [25],320 nM
same,ΔH BRD4 BD2 L/V,BRD4 BD2 L/V [25],-4.4 kcal/mol
same,N BRD4 BD2 L/V,BRD4 BD2 L/V [25]; ITC stoichiometry,1.06
same,Kd,BRD2 BD1 WT [26],> 60000 nM
"C=CC[C@@H](C(=O)OC)[C@@H]1N=C(c2ccc(Cl)cc2)c2cc(OC)ccc2-n2c(C)nnc21 (racemic) [Compound 5, (+-)methyl (R)-2-((S)-6-(4-chlorophenyl)-8-methoxy-1-methyl-4H-benzo[f][1,2,4]triazolo[4,3-a][1,4]diazepin-4-yl)pent-4-enoate]",IC50,BRD3 BD1 L/V [1],126 nM
same,Kd,BRD3 BD2 L/V [2],310 nM
same,ΔH BRD3 BD2 L/V,BRD3 BD2 L/V [2],-8.5 kcal/mol
same,IC50,BRD2 BD1 L/V [3],1000 nM
same,IC50,BRD3 BD2 WT [4],10000 nM
same,IC50,BRD3 BD1 WT [5],3980 nM
same,Kd,BRD4 BD1 WT [6],9700 nM
same,ΔH BRD4 BD1 WT,BRD4 BD1 WT [6],-3.5 kcal/mol
same,N BRD4 BD1 WT,BRD4 BD1 WT [6]; ITC stoichiometry,1.10
same,IC50,BRD4 BD2 WT [7],10000 nM
same,IC50,BRD3 BD2 L/V [8],126 nM
same,IC50,BRDT BD1 L/V,2000 nM
same,Kd,BRD2 BD2 L/V [9],240 nM
same,ΔH BRD2 BD2 L/V,BRD2 BD2 L/V [9],-5.9 kcal/mol
same,IC50,BRD2 BD2 L/V [10],158 nM
same,CL int,Intrinsic Clearance,6.7 ml min^–1 g^–1
same,ΔH BRD4 BD2 WT,BRD4 BD2 WT [11]; ITC,-2.2 kcal/mol
same,N BRD4 BD2 WT,BRD4 BD2 WT [11]; ITC stoichiometry,0.98
same,IC50,BRD2 BD1 WT [12],10000 nM
same,Kd,BRD3 BD1 WT [27],1500 nM
same,ΔH BRD3 BD1 WT,BRD3 BD1 WT [27]; ITC,-2.3 kcal/mol
same,N BRD3 BD1 WT,BRD3 BD1 WT [27]; ITC stoichiometry,0.85
same,Kd,BRD3 BD2 WT [13],23000 nM
same,ΔH BRD3 BD2 WT,BRD3 BD2 WT [13],-3.7 kcal/mol
same,AlphaLISA pIC50 ± SD WT,[14],5.1 ± 0.1
same,Kd,BRD2 BD2 WT [28],5800 nM
same,ΔH BRD2 BD2 WT,BRD2 BD2 WT [28]; ITC,-2.3 kcal/mol
same,N BRD2 BD2 WT,BRD2 BD2 WT [28]; ITC stoichiometry,0.75
same,ITC pKd ± SD WT,[15],5.1 ± 0.4
same,Kd,BRD3 BD1 L/V [16],270 nM
same,ΔH BRD3 BD1 L/V,BRD3 BD1 L/V [16],-11.3 kcal/mol
same,Papp,in vitro,12.7 ×10⁻⁶ cm/s
same,half-life at 50 µM,Plasma Half-life,> 3 h
same,ΔH BRD4 BD1 L/V,BRD4 BD1 L/V [17],-7.4 kcal/mol
same,Kd,BRD4 BD1 L/V [17],180 nM
same,IC50,BRD4 BD1 L/V [18],316 nM
same,IC50,BRD2 BD2 WT [19],10000 nM
same,ITC pKd ± SD Δ,[20],1.5 ± 0.5
same,IC50,BRDT BD1 WT,20000 nM
same,IC50,BRD4 BD1 WT [21],7940 nM
same,IC50,BRD4 BD2 L/V [22],251 nM
same,Kd,BRD2 BD1 L/V [23],470 nM
same,ΔH BRD2 BD1 L/V,BRD2 BD1 L/V [23],-10.3 kcal/mol
same,AlphaLISA pIC50 ± SD Δ,[24],1.5 ± 0.3
same,Kd,BRD4 BD2 L/V [25],170 nM
same,ΔH BRD4 BD2 L/V,BRD4 BD2 L/V [25],-6.4 kcal/mol
same,Kd,BRD2 BD1 WT [26],8400 nM
same,ΔH BRD2 BD1 WT,BRD2 BD1 WT [26]; ITC,-4.0 kcal/mol
same,N BRD2 BD1 WT,BRD2 BD1 WT [26]; ITC stoichiometry,1.0
